Usually IC50 stands for the concentration at which inhibition is half-maximal.

The experiment has as its target T1, Human O-GlcNAcase (His-Tagged hOGA) (Homo sapiens, UniProt O60502).
T1 sequence (O60502 1-916): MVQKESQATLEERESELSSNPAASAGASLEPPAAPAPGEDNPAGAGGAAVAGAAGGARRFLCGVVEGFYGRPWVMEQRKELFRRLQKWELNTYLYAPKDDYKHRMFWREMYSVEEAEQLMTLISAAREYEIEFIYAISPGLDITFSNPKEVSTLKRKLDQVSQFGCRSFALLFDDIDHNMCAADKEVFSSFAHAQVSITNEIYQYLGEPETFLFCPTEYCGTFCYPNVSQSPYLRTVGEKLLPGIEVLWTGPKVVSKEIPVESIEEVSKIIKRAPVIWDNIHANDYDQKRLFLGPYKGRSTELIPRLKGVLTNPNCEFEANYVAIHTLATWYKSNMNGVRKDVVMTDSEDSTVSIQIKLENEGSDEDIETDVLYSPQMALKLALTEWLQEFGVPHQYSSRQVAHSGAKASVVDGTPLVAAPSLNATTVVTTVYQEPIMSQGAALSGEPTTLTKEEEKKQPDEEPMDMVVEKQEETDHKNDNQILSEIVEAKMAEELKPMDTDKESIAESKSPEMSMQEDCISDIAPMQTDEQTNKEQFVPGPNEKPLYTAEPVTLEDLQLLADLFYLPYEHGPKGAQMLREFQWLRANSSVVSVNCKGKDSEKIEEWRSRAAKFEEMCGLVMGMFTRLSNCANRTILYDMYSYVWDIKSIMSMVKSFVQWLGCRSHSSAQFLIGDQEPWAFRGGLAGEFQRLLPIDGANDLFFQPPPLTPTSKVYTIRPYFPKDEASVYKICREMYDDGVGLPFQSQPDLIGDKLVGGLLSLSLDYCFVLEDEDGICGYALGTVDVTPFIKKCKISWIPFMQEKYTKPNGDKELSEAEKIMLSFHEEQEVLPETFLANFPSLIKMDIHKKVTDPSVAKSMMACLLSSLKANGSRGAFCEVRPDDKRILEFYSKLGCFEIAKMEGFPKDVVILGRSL
Kind of experiment: Human O-GlcNAcase enzyme inhibition assay. As to conditions: 20 nM His-Tagged hOGA, 10 μM FL-GlcNAc, McIlvaine's Buffer pH 6.5, 60 min at room temperature, fluorescence; read-out: OGA IC50. The experiment is classed as biochemical. The procedure, abridged: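 20 nM His-tagged hOGA with 10 μM fluorescein-GlcNAc substrate in McIlvaine's buffer pH 6.5, 60 min at room temperature, stopped with glycine pH 10.75. Fluorescence (485/520 nm) background-corrected using 3 uM Thiamet as full inhibition and 0.5% DMSO as no inhibition; IC50 from sigmoidal dose-response.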
In the case of `Cn1cc(-c2ccc(CN3CCCC3c3ccc4c(c3)OCCO4)cn2)cn1` (single isomer, unassigned) [Example 7, (S)-5-((2-(2,3-dihydrobenzo[b] [1,4]dioxin-6-yl)pyrrolidin-1-yl)methyl)-2-(1-methyl-1H-pyrazol-4-yl)pyridine or (R)-5-((2-(2,3-dihydrobenzo[b] [1,4]dioxin-6-yl)pyrrolidin-1-yl)methyl)-2-(1-methyl-1H-pyrazol-4-yl)pyridine], the IC50 lay within 50 to 200 nM. As for `CS(=O)(=O)c1ccc(CN2CCCC2c2ccc3c(c2)OCCO3)cc1` (single isomer, unassigned) [Example 13, (S)-2-(2,3-dihydrobenzo[b] [1,4]dioxin-6-yl)-1-(4-(methylsulfonyl)benzyl) pyrrolidine or (R)-2-(2,3-dihydrobenzo[b] [1,4]dioxin-6-yl)-1-(4-(methylsulfonyl)benzyl) pyrrolidine], the figure is 200 to 1000 nM. Consider `Cn1cc(-c2ccc(CN3CCCC3c3ccc4c(c3)OCCO4)nc2)cn1` (single isomer, unassigned) [Example 18, (S)-2-((2-(2,3-dihydrobenzo[b] [1,4]dioxin-6-yl)pyrrolidin-1-yl)methyl)-5-(1-methyl-1H-pyrazol-4-yl)pyridine or (R)-2-((2-(2,3-dihydrobenzo[b] [1,4]dioxin-6-yl)pyrrolidin-1-yl)methyl)-5-(1-methyl-1H-pyrazol-4-yl)pyridine], for which the IC50 is 1000 to 10000 nM.

`c1cnc2ccc(CN3CCCC3c3ccc4c(c3)OCCO4)cc2c1` (single isomer, unassigned) [Example 25, (S)-6-((2-(2,3-dihydrobenzo[b] [1,4]dioxin-6-yl)pyrrolidin-1-yl)methyl)quinolone or (R)-6-((2-(2,3-dihydrobenzo[b] [1,4]dioxin-6-yl)pyrrolidin-1-yl)methyl)quinolone]: the 50% inhibitory concentration (IC50) is 50 to 200 nM. As for `c1cnn(-c2ccc(CN3CCCC3c3ccc4c(c3)OCCO4)cc2)c1` (single isomer, unassigned) [Example 27, (S)-1-(4-((2-(2,3-dihydrobenzo[b] [1,4]dioxin-6-yl)pyrrolidin-1-yl)methyl)phenyl)-1 H-pyrazole or (R)-1-(4-((2-(2,3-dihydrobenzo[b] [1,4]dioxin-6-yl)pyrrolidin-1-yl)methyl)phenyl)-1H-pyrazole], the figure is 50 to 200 nM; as for `Cc1cc(-c2cccnc2)ccc1CN1CCCC1c1ccc2c(c1)OCCO2` (single isomer, unassigned) [Example 33, (S)-3-(4-((2-(2,3-dihydrobenzo[b] [1,4]dioxin-6-yl)pyrrolidin-1-ylmethyl)-3-methylphenyl)pyridine or (R)-3-(4-((2-(2,3-dihydrobenzo[b] [1,4]dioxin-6-yl)pyrrolidin-1-yl)methyl)-3-methylphenyl)pyridine], 50 to 200 nM. The result for `c1ccc(-c2ccc(CN3CCCC3c3ccc4c(c3)OCCO4)cc2)nc1` (single isomer, unassigned) [Example 40, (S)-2-(4-((2-(2,3-dihydrobenzo[b] [1,4]dioxin-6-yl)pyrrolidin-1-yl)methyl)phenyl)pyridine or (R)-2-(4-((2-(2,3-dihydrobenzo[b] [1,4]dioxin-6-yl)pyrrolidin-1-yl)methyl)phenyl)pyridine] reads 50 to 200 nM; that for `c1ncn(-c2ccc(CN3CCCC3c3ccc4c(c3)OCCO4)cc2)n1` (single isomer, unassigned) [Example 48, (S)-1-(4-((2-(2,3-dihydrobenzo[b] [1,4]dioxin-6-yl)pyrrolidin-1-yl)methyl) Phenyl)-1H-1,2,4-triazole or (R)-1-(4-((2-(2,3-dihydrobenzo[b] [1,4]dioxin-6-yl)pyrrolidin-1-yl)methyl)phenyl)-1 H-1,2,4-triazole], 50 to 200 nM. The result for `CS(=O)(=O)N1CCN(c2ccc(CN3CCCC3c3ccc4c(c3)OCCO4)cc2)CC1` (single isomer, unassigned) [Example 53, (S)-1-(4-((2-(2,3-dihydrobenzo[b] [1,4]dioxin-6-yl)pyrrolidin-1-yl)methyl)phenyl)-4-(methylsulfonyl)piperazine or (R)-1-(4-((2-(2,3-dihydrobenzo[b] [1,4]dioxin-6-yl)pyrrolidin-1-yl)methyl)phenyl)-4-(methylsulfonyl)piperazine] reads 50 to 200 nM; that for `O=C1CSCCN1c1ccc(CN2CCCC2c2ccc3c(c2)OCCO3)cc1` (single isomer, unassigned) [Example 73], 200 to 1000 nM. Turning to `O=C1CSCCN1c1ccc(CN2CCCC2c2ccc3c(c2)OCCO3)cc1` (single isomer, unassigned) [Example 74], the IC50 was in the range of 1000 to 10000 nM. Regarding `c1cnc(-c2ccc(CN3CCCC3c3ccc4c(c3)OCCO4)cc2)nc1` (single isomer, unassigned) [Example 75, (S)-2-(4-((2-(2,3-dihydrobenzo[b] [1,4]dioxin-6-yl)pyrrolidin-1-yl)methyl)phenyl)pyrimidine or (R)-2-(4-((2-(2,3-dihydrobenzo[b] [1,4]dioxin-6-yl)pyrrolidin-1-yl)methyl)phenyl)pyrimidine], the half-maximal inhibitory concentration (IC50) lay within 50 to 200 nM. As to `Cn1cc(-c2ccc(CN3CCCC3c3ccc4c(c3)OCCO4)nc2)cn1` (single isomer, unassigned) [Example 145], the IC50 lay within 200 to 1000 nM. The result for `CS(=O)(=O)N1CCN(c2ccc(CN3CCCC3c3ccc4c(c3)OCCO4)cc2)CC1` (single isomer, unassigned) [Example 148] reads 1000 to 10000 nM.
